Results from the supplement of paper PMC5908809.

Columns and labels:
[1] = system: normal primary NK cells, pool 1 (3 donors) (IL-2 2.5 ng/mL); assay: drug sensitivity score (DSS) (DSS units); higher = more sensitive; extreme values may be limits of the assay; conditions: 72 h
NK-YS (IL-2 2.5 ng/mL) [2] = assay: as above; conditions: 72 h
SNK-6 (IL-2 2.5 ng/mL) [3] = assay: as above; conditions: 72 h
NKL (IL-2 2.5 ng/mL) [4] = assay: as above; conditions: 72 h
[5] = system: normal primary NK cells, pool 3 (3 donors) (IL-2 2.5 ng/mL); assay: as above; conditions: 72 h
[6] = system: normal primary NK cells, pool 1 (3 donors), resting (IL-2 0 ng/mL); assay: as above; conditions: 72 h
KAI3 (IL-2 2.5 ng/mL) [7] = assay: as above; conditions: 72 h
[8] = system: normal primary NK cells, pool 2 (3 donors) (IL-2 2.5 ng/mL); assay: as above; conditions: 72 h
IMC-1 (IL-2 20 ng/mL) [9] = assay: as above; conditions: 72 h
KHYG-1 (IL-2 2.5 ng/mL) [10] = assay: as above; conditions: 72 h
DERL-7 (IL-2 2.5 ng/mL) [11] = assay: as above; conditions: 72 h
YT (IL-2 2.5 ng/mL) [12] = assay: as above; conditions: 72 h
NK-92 (IL-2 2.5 ng/mL) [13] = assay: as above; conditions: 72 h
[14] = system: normal NK cells expanded with K562-aAPC; assay: as above; conditions: 72 h; IL-2 2.5 ng/mL
Method: (§1)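 Drug sensitivity and resistance testing on K562-aAPC-expanded normal NK cells: 5 concentrations (10-fold steps over a 10,000-fold range), 72 h at 37 °C, viability by CellTiter-Glo normalised to DMSO and benzethonium chloride controls; DSS from the fitted curve.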

[15] = system: normal NK cells expanded with K562-aAPC; assay: percent inhibition of viability; higher = more inhibition; conditions: 72 h, IL-2 2.5 ng/mL
Method: as §1

[16] = system: normal primary NK cells, pool 1 (3 donors) (IL-2 2.5 ng/mL); assay: as above; conditions: 72 h
NK-YS (IL-2 2.5 ng/mL) [17] = assay: as above; conditions: 72 h
SNK-6 (IL-2 2.5 ng/mL) [18] = assay: as above; conditions: 72 h
NKL (IL-2 2.5 ng/mL) [19] = assay: as above; conditions: 72 h
[20] = system: normal primary NK cells, pool 3 (3 donors) (IL-2 2.5 ng/mL); assay: as above; conditions: 72 h
[21] = system: normal primary NK cells, pool 1 (3 donors), resting (IL-2 0 ng/mL); assay: as above; conditions: 72 h
KAI3 (IL-2 2.5 ng/mL) [22] = assay: as above; conditions: 72 h
[23] = system: normal primary NK cells, pool 2 (3 donors) (IL-2 2.5 ng/mL); assay: as above; conditions: 72 h
IMC-1 (IL-2 20 ng/mL) [24] = assay: as above; conditions: 72 h
KHYG-1 (IL-2 2.5 ng/mL) [25] = assay: as above; conditions: 72 h
DERL-7 (IL-2 2.5 ng/mL) [26] = assay: as above; conditions: 72 h
YT (IL-2 2.5 ng/mL) [27] = assay: as above; conditions: 72 h
NK-92 (IL-2 2.5 ng/mL) [28] = assay: as above; conditions: 72 h

CCN1CCN(Cc2ccc(-c3cc4c(N[C@H](C)c5ccccc5)ncnc4[nH]3)cc2)CC1 [NVP-AEE788] (max concentration tested 2500 nM)
Conditions | drug sensitivity score
DERL-7 (IL-2 2.5 ng/mL) [11] | 1.24
IMC-1 (IL-2 20 ng/mL) [9] | 0
KAI3 (IL-2 2.5 ng/mL) [7] | 1.9
KHYG-1 (IL-2 2.5 ng/mL) [10] | 0.75
NK-92 (IL-2 2.5 ng/mL) [13] | 4.8
NK-YS (IL-2 2.5 ng/mL) [2] | 0.35
NKL (IL-2 2.5 ng/mL) [4] | 4.63
SNK-6 (IL-2 2.5 ng/mL) [3] | 0
YT (IL-2 2.5 ng/mL) [12] | 2.2
[1] | 0
[5] | 0
[6] | 0.04
[8] | 0
[14] | 1.88

percent inhibition of viability [%]
Conditions | 0.25 nM | 2.5 nM | 25 nM | 250 nM | 2500 nM
DERL-7 (IL-2 2.5 ng/mL) [26] | -0.87 | 0.92 | 1.23 | 5.24 | 19.9
IMC-1 (IL-2 20 ng/mL) [24] | -8.78 | -2.35 | 1.14 | -4.8 | 5.2
KAI3 (IL-2 2.5 ng/mL) [22] | -3.14 | -7.58 | -0.99 | 5.51 | 26.6
KHYG-1 (IL-2 2.5 ng/mL) [25] | -7.12 | -8.65 | -3.24 | -0.41 | 22.7
NK-92 (IL-2 2.5 ng/mL) [28] | -16 | -4.1 | -2.66 | 13.6 | 51
NK-YS (IL-2 2.5 ng/mL) [17] | -8.61 | -8.85 | -3.03 | -1.23 | 17.7
NKL (IL-2 2.5 ng/mL) [19] | -2.78 | 3.21 | 7.84 | 20 | 48.2
SNK-6 (IL-2 2.5 ng/mL) [18] | -12.2 | -14.1 | -23.9 | -6.92 | 9.17
YT (IL-2 2.5 ng/mL) [27] | -6.59 | -5.53 | -3.48 | 7.61 | 27.4
[15] | -8.59 | -5.81 | -0.99 | 4.64 | 27.8
[16] | 4.7 | 13.8 | 6.81 | 9.36 | 16.1
[20] | -4.61 | 9.35 | 9.18 | 5.89 | -1.16
[21] | -1.29 | 14.4 | 9.7 | 11.1 | 5.88
[23] | -10.9 | 9.29 | 3.66 | 5.84 | 2.8

COc1cc(Nc2ncc3c(n2)-c2ccc(Cl)cc2C(c2c(F)cccc2OC)=NC3)ccc1C(=O)O [Alisertib] (max concentration tested 10000 nM)
Conditions | drug sensitivity score
DERL-7 (IL-2 2.5 ng/mL) [11] | 23.4
IMC-1 (IL-2 20 ng/mL) [9] | 19.8
KAI3 (IL-2 2.5 ng/mL) [7] | 16
KHYG-1 (IL-2 2.5 ng/mL) [10] | 24.4
NK-92 (IL-2 2.5 ng/mL) [13] | 21.1
NK-YS (IL-2 2.5 ng/mL) [2] | 24.5
NKL (IL-2 2.5 ng/mL) [4] | 17.9
SNK-6 (IL-2 2.5 ng/mL) [3] | 24.9
YT (IL-2 2.5 ng/mL) [12] | 13.6
[1] | 0
[5] | 1.41
[6] | 5.81
[8] | 1.95
[14] | 16.4

percent inhibition of viability [%]
Conditions | 1 nM | 10 nM | 100 nM | 1000 nM | 10000 nM
DERL-7 (IL-2 2.5 ng/mL) [26] | 3.14 | 3.32 | 73.9 | 65.1 | 72.8
IMC-1 (IL-2 20 ng/mL) [24] | -9.95 | 3 | 42.5 | 76.7 | 88
KAI3 (IL-2 2.5 ng/mL) [22] | -7.42 | 6.5 | 38.4 | 56.8 | 73
KHYG-1 (IL-2 2.5 ng/mL) [25] | -6.82 | 13.3 | 62.3 | 82.9 | 90.3
NK-92 (IL-2 2.5 ng/mL) [28] | -1.61 | 21.5 | 53.4 | 63.6 | 77.1
NK-YS (IL-2 2.5 ng/mL) [17] | -8.82 | 18.6 | 67.4 | 75.4 | 71.3
NKL (IL-2 2.5 ng/mL) [19] | -15.7 | -12.7 | 54.1 | 31.1 | 62.9
SNK-6 (IL-2 2.5 ng/mL) [18] | -9.82 | 4.71 | 73.7 | 81.3 | 84.4
YT (IL-2 2.5 ng/mL) [27] | -1.37 | 10.7 | 43.4 | 32.9 | 60.8
[15] | -8.29 | -10.5 | 39 | 46 | 63.8
[16] | -6.59 | 4.27 | 6.91 | 0.99 | 12.4
[20] | 4.24 | -4.25 | 17.1 | 4.71 | 23
[21] | 4.36 | 18.6 | 7.69 | 21.1 | 47.6
[23] | -1.45 | -4.51 | 12.5 | 7.67 | 29.6
